Results on 31 compounds are retold here after ChEMBL document CHEMBL4837260, “Structure-Guided Design of a Small-Molecule Activator of Sirtuin-3 that Modulates Autophagy in Triple Negative Breast Cancer” (J Med Chem, 2021).

One data set has as its system MDA-MB-231. Put plainly: Antiproliferative activity against human MDA-MB-231 cells measured after 24 hrs by MTT assay. The data set is classed as functional, cell-based. The note with it: MDA-MB-231, 24 h. On the technique in general: Tetrazolium dyes change colour on reduction, which living cells bring about.
Another data set relates to HL-60. As to the kind of experiment: Antiproliferative activity against human HL-60 cells measured after 24 hrs by MTT assay. The data set is classed as functional, cell-based. As to conditions: HL-60, 24 h.
For the next data set, the system named is U-937. As to the kind of experiment: Antiproliferative activity against human U-937 cells measured after 24 hrs by MTT assay. The data set is classed as functional, cell-based. As to conditions: U-937, 24 h.
In the next data set the test system is MCF7. Put plainly: Antiproliferative activity against human MCF7 cells measured after 24 hrs by MTT assay. It is filed as functional, cell-based. The note with it: MCF7, 24 h.
Data set [1] concerns the target T1, NAD-dependent protein deacetylase sirtuin-3, mitochondrial (Homo sapiens, UniProt Q9NTG7).
T1 sequence (Q9NTG7 whole entry): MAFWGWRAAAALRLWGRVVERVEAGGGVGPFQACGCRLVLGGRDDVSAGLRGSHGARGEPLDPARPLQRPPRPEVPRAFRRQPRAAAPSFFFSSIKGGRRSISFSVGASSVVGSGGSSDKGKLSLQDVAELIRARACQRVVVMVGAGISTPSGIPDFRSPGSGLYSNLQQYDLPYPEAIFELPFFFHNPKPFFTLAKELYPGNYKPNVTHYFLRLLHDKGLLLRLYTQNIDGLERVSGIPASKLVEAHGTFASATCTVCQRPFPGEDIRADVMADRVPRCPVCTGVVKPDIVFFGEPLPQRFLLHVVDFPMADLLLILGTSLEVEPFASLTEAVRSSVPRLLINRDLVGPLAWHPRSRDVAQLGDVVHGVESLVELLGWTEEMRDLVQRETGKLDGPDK
As to the kind of experiment: Activation of recombinant human SIRT3 assessed as lysyl deacetylase activity using (Gln-Pro-Lys-Lys(Ac)) peptide substrate by fluorescent assay.

Data set [2] is described as follows: Toxicity in BALB/c mouse xenografted with human MDA-MB-231 cells assessed as change in body weight at 100 mg/kg once daily for 1 week. The note with it: in vivo, 168 h, time 1 weeks. The data set is classed as organism-based.
Data set [3] is described as follows: Toxicity in BALB/c mouse xenografted with human MDA-MB-231 cells assessed as change in body weight at 25 mg/kg once daily for 1 week. The data set is classed as organism-based. As to conditions: in vivo, 168 h, time 1 weeks.
A short description of data set [4]: Toxicity in BALB/c mouse xenografted with human MDA-MB-231 cells assessed as widening of the pulmonary septum and more cellular components at 100 mg/kg once daily for 1 week by H&E staining. As to conditions: in vivo, 168 h, time 1 weeks. The data set is classed as organism-based. (In xenograft studies the graft and the host belong to different species.)

Broadly, the IC50 is the concentration that inhibits the measured activity by half. A high value points to lower potency. The term EC50 denotes the concentration that produces a half-maximal response.

On to `CCCCc1oc2ccccc2c1C(=O)c1cc(I)c(OCCN2CCCC2)c(I)c1`, for which the IC50 in the data set on MDA-MB-231 was 20.4 µM; in the data set with HL-60, 23.2 µM; with U-937 it was 31.7 µM; in the data set on MCF7, above 50 µM. Further, in data set [1], the EC50 was 16.2 µM.
Take `CCCCc1oc2ccccc2c1C(=O)c1cc(I)c(OCCN(C)C)c(I)c1`: the IC50 in the data set on MDA-MB-231 was 6.6 µM; with HL-60, 8.22 µM; with U-937 it was 8.68 µM; in the data set with MCF7, 39.4 µM. Besides, the EC50 in data set [1] was 4.69 µM.
Regarding `CCCCc1oc2ccccc2c1C(=O)c1ccc(OCCN(CC)CC)cc1`, the concentration for half-maximal inhibition (IC50) in the data set with MDA-MB-231 worked out at 19.4 µM; in the data set with HL-60, 2.77 µM; in the data set on U-937, 3.47 µM; in the data set with MCF7, 5.26 µM.
Take `CCCCc1oc2ccccc2c1C(=O)c1cc(I)c(OCCCN2CCN(Cc3ccccc3)CC2)c(I)c1`: the IC50 was 15.7 µM in the data set with MDA-MB-231, above 50 µM in the data set on HL-60, 41.4 µM in the data set with U-937 and 28.7 µM in the data set with MCF7.
Consider `CCCCc1oc2ccccc2c1C(=O)c1cc(I)c(OCCCNCc2ccccc2)c(I)c1`, for which the IC50 in the data set with MDA-MB-231 was determined as 11.6 µM; in the data set on HL-60 it was 4.4 µM; with U-937, 2.3 µM; in the data set with MCF7, 8.05 µM. Moreover, the EC50 in data set [1] amounted to 10.7 µM.
With `CCCCc1oc2ccccc2c1C(=O)c1ccc(OCC(N)=O)cc1`, the half-inhibitory concentration (IC50) in the data set with MDA-MB-231 was above 50 µM; in the data set with HL-60, above 50 µM; in the data set on U-937, 42.2 µM; with MCF7, above 50 µM.
As to `CCCCc1oc2ccccc2c1C(=O)c1ccc(OCC(=O)Nc2cccc(OC)c2)cc1`, the IC50 in the data set with MDA-MB-231 is above 50 µM; with HL-60, above 50 µM; in the data set on U-937, 24.2 µM; in the data set on MCF7, 38.5 µM.
Take `CCCCc1oc2ccccc2c1C(=O)c1ccc(OCCCC(=O)N(C)Cc2ccccc2)cc1`: the IC50 is above 50 µM in the data set on MDA-MB-231, above 50 µM in the data set on HL-60, 10.5 µM in the data set on U-937 and above 50 µM with MCF7.
Take `CCCCc1oc2ccccc2c1C(=O)c1cc(I)c(OCCCN(C)Cc2ccccc2)c(I)c1`: the IC50 came to 54 µM with MDA-MB-231, 8.51 µM in the data set with HL-60, 6.86 µM in the data set with U-937 and 8.02 µM in the data set with MCF7.
`CCCCNC(=O)COc1ccc(C(=O)c2c(CCCC)oc3ccccc23)cc1`: the IC50 in the data set with MDA-MB-231 is 34.5 µM; in the data set on HL-60, above 50 µM; with U-937, 22.8 µM; in the data set on MCF7, above 50 µM. The EC50 in data set [1] turned out to be 18.9 µM.
For `CCCCc1oc2ccccc2c1C(=O)c1ccc(OCCCC(=O)N[C@H](C)c2ccccc2)cc1`, the IC50 is above 50 µM with MDA-MB-231, above 50 µM in the data set with HL-60, 30.7 µM in the data set on U-937 and above 50 µM in the data set with MCF7.
As to `CCCCc1oc2ccccc2c1C(=O)c1cc(I)c(OCCCC2CCCC2)c(I)c1`, the IC50 was above 50 µM in the data set on MDA-MB-231, above 50 µM with HL-60, 42.2 µM in the data set with U-937 and above 50 µM in the data set on MCF7.
In the case of `CCCCNC(=O)CCCOc1ccc(C(=O)c2c(CCCC)oc3ccccc23)cc1`, the IC50 with MDA-MB-231 is 38.1 µM; with HL-60 it was above 50 µM; in the data set on U-937 it was 24.6 µM; in the data set with MCF7, above 50 µM. Further, the EC50 in data set [1] turned out to be 16.7 µM.
For the compound `CCCCc1oc2ccccc2c1C(=O)c1ccc(OCC(=O)N[C@@H](C)c2ccccc2)cc1`, the IC50 is above 50 µM with MDA-MB-231, above 50 µM in the data set with HL-60, 33.8 µM with U-937 and 17.9 µM in the data set with MCF7.
With `CCCCc1oc2ccccc2c1C(=O)c1ccc(OCCCC(=O)NCc2ccccc2)cc1`, the IC50 is above 50 µM with MDA-MB-231, 28.9 µM in the data set on HL-60, 15.8 µM in the data set with U-937 and 49.7 µM in the data set with MCF7.
Taken in the same sequence, the figures for `CCCCc1oc2ccccc2c1C(=O)c1ccc(OCC(=O)NCc2ccccc2)cc1` were above 50 µM, above 50 µM, 16.3 µM and 19.6 µM.
Consider `CCCCc1oc2ccccc2c1C(=O)c1cc(I)c(OCCCN2CCCC2)c(I)c1`, for which the Activity result in data set [2], in data set [3] and in data set [4] was “Non-Toxic” throughout.
For the compound `CCCCc1oc2ccccc2c1C(=O)c1cc(I)c(OCCCN2CCN(C)CC2)c(I)c1`, the IC50 was 8.76 µM in the data set on MDA-MB-231, above 50 µM in the data set on HL-60, above 50 µM in the data set on U-937 and 5.37 µM in the data set on MCF7. Besides, the EC50 in data set [1] stood at 3.46 µM.
On to `CCCCc1oc2ccccc2c1C(=O)c1cc(Cl)c(OCCCN2CCCC2)c(Cl)c1`, for which the IC50 with MDA-MB-231 was 28.2 µM; in the data set with HL-60, 11.3 µM; with U-937, 25.2 µM; in the data set on MCF7 it was 27.7 µM. Also, the EC50 in data set [1] was found to be 0.81 µM.
With `CCCCc1oc2ccccc2c1C(=O)c1cc(I)c(OCCCN(CC)CC)c(I)c1`, the IC50 came to 26.8 µM in the data set with MDA-MB-231, 16 µM with HL-60, 30 µM in the data set with U-937 and 21.5 µM in the data set on MCF7. In data set [1], the EC50 was 4.15 µM.
Regarding `CCCCc1oc2ccccc2c1C(=O)c1ccc(OCC(=O)N2CCCCC2)cc1`, the IC50 in the data set with MDA-MB-231 is above 50 µM; in the data set on HL-60, above 50 µM; in the data set on U-937 it was 37.1 µM; in the data set with MCF7 it was above 50 µM. In addition, the EC50 in data set [1] came to 2.68 µM.
As for `CCCCc1oc2ccccc2c1C(=O)c1ccc(OCC(=O)N2CCOCC2)cc1`, the IC50 in the data set with MDA-MB-231 was above 50 µM; with HL-60 it was above 50 µM; in the data set on U-937, 45.4 µM; with MCF7 it was 34 µM. The EC50 in data set [1] worked out at 1.23 µM.
As for `CCCCc1oc2ccccc2c1C(=O)c1ccc(OCCCC(=O)N2CCCCC2)cc1`, the 50% inhibitory concentration (IC50) in the data set on MDA-MB-231 turned out to be 36 µM; in the data set with HL-60 it was 31.9 µM; in the data set on U-937, 16.6 µM; in the data set with MCF7, 33 µM. Besides, the EC50 in data set [1] stood at 2.38 µM.
As to `CCCCc1oc2ccccc2c1C(=O)c1cc(I)c(OCCCN2CCCCC2)c(I)c1`, the IC50 in the data set with MDA-MB-231 was 15.7 µM; in the data set with HL-60, 11.5 µM; in the data set on U-937 it was 18.2 µM; with MCF7 it was 37.9 µM. The EC50 in data set [1] came to 1.65 µM.
In the case of `CCCCc1oc2ccccc2c1C(=O)c1ccc(OCCCC(=O)N[C@@H](C)c2ccccc2)cc1`, the half-inhibitory concentration (IC50) in the data set on MDA-MB-231 is above 50 µM; with HL-60 it was above 50 µM; in the data set on U-937, 22.4 µM; in the data set on MCF7 it was above 50 µM. Also, the EC50 in data set [1] was found to be 7.01 µM.
Turning to `CCCCc1oc2ccccc2c1C(=O)c1ccc(OCCCC(=O)N2CCOCC2)cc1`, the IC50 with MDA-MB-231 stood at 31.6 µM; in the data set on HL-60, 34 µM; in the data set with U-937, 21.4 µM; in the data set with MCF7, 41.2 µM. Moreover, the EC50 in data set [1] came to 3.02 µM.
For `CCCCc1oc2ccccc2c1C(=O)c1ccc(OCC(=O)N[C@H](C)c2ccccc2)cc1`, the IC50 is 39 µM in the data set on MDA-MB-231, above 50 µM in the data set with HL-60, 19.8 µM with U-937 and 14.1 µM in the data set on MCF7. The EC50 in data set [1] worked out at 17.4 µM.
For the compound `CCCCc1oc2ccccc2c1C(=O)c1ccc(OCCCN2CCCC2)cc1`, the IC50 is 19.5 µM with MDA-MB-231, 6.38 µM in the data set on HL-60, 6.82 µM with U-937 and 3.73 µM in the data set on MCF7.
With `CCCCc1oc2ccccc2c1C(=O)c1cc(I)c(OCCN(CC)CC)c(I)c1` [AMIODARONE], the EC50 in data set [1] was determined as 3.25 µM.
As to `C=CCc1ccc(O)c(-c2ccc(O)c(CC=C)c2)c1` [HONOKIOL], in the data set with MDA-MB-231, the IC50 was found to be 44.9 µM. Also, the EC50 in data set [1] came to 0.17 µM.
Take `Oc1ccc(/C=C/c2cc(O)cc(O)c2)cc1` [RESVERATROL]: the IC50 with MDA-MB-231 amounted to 98.8 µM. Further, the EC50 in data set [1] came to 55.2 µM.
